Experimental data reported in the OligoGym collection.
Several values for one entry are separate records, joined by “and”; a condition that tells them apart may be missing. Equal entries are not always repeated. After the bases stand the sugars from the 5' end (letter, count) and the backbone: PS all phosphorothioate, else s phosphorothioate and o phosphodiester by linkage. Methylation of C is not given here. e = 2'-O-(2-methoxyethyl) (MOE); k = constrained ethyl (cEt); d = 2'-deoxy (DNA)

Biological target: SOD1
Settings: ASO

“GGCGATCCCAATTACACCAC (sugars e6 d8 e6, linkages s1 o3 s10 o3 s2)” was tested, and the target mRNA inhibition (A431, 0.062 µM) was 7%, the target mRNA inhibition (A431, 0.185 µM) was 0% and the target mRNA inhibition (A431, 0.556 µM) was 0%. For the same sequence, the target mRNA inhibition (A431, 1.667 µM) was 23%, the target mRNA inhibition (A431, 5 µM) was 14% and the target mRNA inhibition (A431, 15 µM) was 6%. For the same sequence, the target mRNA inhibition (SH-SY5Y, 0.062 µM) was 0%, the target mRNA inhibition (SH-SY5Y, 0.185 µM) was 0% and the target mRNA inhibition (SH-SY5Y, 0.556 µM) was 8%. It also gave a target mRNA inhibition (SH-SY5Y, 1.667 µM) of 23%, a target mRNA inhibition (SH-SY5Y, 5 µM) of 49% and a target mRNA inhibition (SH-SY5Y, 15 µM) of 66%.

“TGTTTATCAGGATACATTTC (sugars e5 d10 e5, PS)” was tested, and the target mRNA inhibition (HepG2, 5 µM) was 52%.

“GGCGATCCCAATTACACC (sugars e5 d8 e5, linkages s1 o3 s9 o2 s2)” was tested, and the target mRNA inhibition (A431, 0.062 µM) was 3%, the target mRNA inhibition (A431, 0.185 µM) was 1% and the target mRNA inhibition (A431, 0.556 µM) was 29%. The target mRNA inhibition (A431, 1.667 µM) was 0%, the target mRNA inhibition (A431, 5 µM) was 27% and the target mRNA inhibition (A431, 15 µM) was 0%. The target mRNA inhibition (SH-SY5Y, 0.062 µM) was 0%, the target mRNA inhibition (SH-SY5Y, 0.185 µM) was 3% and the target mRNA inhibition (SH-SY5Y, 0.556 µM) was 21%. The target mRNA inhibition (SH-SY5Y, 1.667 µM) was 31%, the target mRNA inhibition (SH-SY5Y, 5 µM) was 47% and the target mRNA inhibition (SH-SY5Y, 15 µM) was 66%.

Sequence “GACGCAAACCAGCACCCCGT (sugars e5 d10 e5, PS)” has a target mRNA inhibition (HepG2, 4 µM) of 45%.

“TTAATACCCATCTGTGA (sugars e2 k2 d8 k2 e3, PS)” gave a target mRNA inhibition (HepG2, 5 µM) of 28%.

“TTCTTTTAATAGCCTCATAA (sugars e5 d10 e5, PS)” showed a target mRNA inhibition (HepG2, 5 µM) of 5%.

“TAGCCTCATAATAAGTG (sugars e2 k2 d9 k2 e2, PS)” was tested, and the target mRNA inhibition (HepG2, 5 µM) was 27%.

With “GGATTAAAGTGAGGACC (sugars e3 k2 d7 k2 e3, PS)” the target mRNA inhibition (HepG2, 3 µM) was 30%.

“CCCCGTCTCCGCGACTACTT (sugars e5 d10 e5, PS)” gave a target mRNA inhibition (HepG2, 4 µM) of 16%.

With “ACAGGTACTTTAAAGCA (sugars e2 k2 d8 k2 e3, PS)” the target mRNA inhibition (HepG2, 5 µM) was 14%.

Sequence “AAGAAATTCTGACAAGT (sugars e3 k2 d7 k2 e3, PS)” has a target mRNA inhibition (HepG2, 3 µM) of 18%.

Sequence “CCCATCTGTGATTTAAGTCT (sugars e5 d10 e5, PS)” has a target mRNA inhibition (HepG2, 5 µM) of 41%.

“CTGGTCCATTACTTTCC (sugars e3 k2 d7 k2 e3, PS)” gave a target mRNA inhibition (HepG2, 3 µM) of 11%.

“CTCAGACTACATCCAAG (sugars e2 k2 d8 k2 e3, PS)” showed a target mRNA inhibition (HepG2, 0.1875 µM) of 38%, a target mRNA inhibition (HepG2, 0.75 µM) of 65% and a target mRNA inhibition (HepG2, 3 µM) of 87%. For the same sequence, the target mRNA inhibition (HepG2, 4 µM) was 85% and 83% and the target mRNA inhibition (HepG2, 12 µM) was 90% and 96%.

With “GCACTGGTACAGCCTGCTGT (sugars e5 d10 e5, PS)” the target mRNA inhibition (HepG2, 5 µM) was 31% and 24%.

Work on “TCACTGGTCCATTACTT (sugars e3 k2 d7 k2 e3, PS)” yielded a target mRNA inhibition (HepG2, 3 µM) of 15%.

“AAACTATACAAATCTTC (sugars e2 k2 d9 k2 e2, PS)” gave a target mRNA inhibition (HepG2, 5 µM) of 55%.

Sequence “GATACATTTCTACAGCT (sugars e2 k2 d9 k2 e2, PS)” has a target mRNA inhibition (HepG2, 0.1875 µM) of 0%, a target mRNA inhibition (HepG2, 0.75 µM) of 45% and a target mRNA inhibition (HepG2, 3 µM) of 75%. The target mRNA inhibition (HepG2, 4 µM) was 77% and the target mRNA inhibition (HepG2, 12 µM) was 97%.

“GCCGTCGCCCTTCAGCA (sugars e3 k2 d7 k2 e3, PS)” showed a target mRNA inhibition (HepG2, 3 µM) of 33%.

In the case of “CGCCCTTCAGCACGCAC (sugars e2 k2 d9 k2 e2, PS)”, the target mRNA inhibition (HepG2, 0.1875 µM) is reported as 12%, the target mRNA inhibition (HepG2, 0.75 µM) is reported as 47% and the target mRNA inhibition (HepG2, 3 µM) is reported as 79%. The target mRNA inhibition (HepG2, 4 µM) was 73% and the target mRNA inhibition (HepG2, 12 µM) was 94%.

For “ATACATTTCTACAGCTA (sugars e3 k2 d7 k2 e3, PS)”, the target mRNA inhibition (HepG2, 0.1875 µM) was 34%, the target mRNA inhibition (HepG2, 0.75 µM) was 56% and the target mRNA inhibition (HepG2, 3 µM) was 57% and 82%. For the same sequence, the target mRNA inhibition (HepG2, 12 µM) was 93%.

“CCCTTCAGCACGCACAC (sugars e2 k2 d8 k2 e3, PS)” was tested, and the target mRNA inhibition (HepG2, 0.1875 µM) was 25%, the target mRNA inhibition (HepG2, 0.75 µM) was 22% and the target mRNA inhibition (HepG2, 2 µM) was 50%. The target mRNA inhibition (HepG2, 3 µM) was 72%, the target mRNA inhibition (HepG2, 4 µM) was 74% and the target mRNA inhibition (HepG2, 12 µM) was 79%.

With “ACCCATCTGTGATTTAA (sugars e2 k2 d8 k2 e3, PS)” the target mRNA inhibition (HepG2, 5 µM) was 33%.

Sequence “CATACAGGGTTTTTATT (sugars e3 k2 d7 k2 e3, PS)” has a target mRNA inhibition (HepG2, 3 µM) of 0%.

In the case of “CATTGCCCAAGTCTCCAACA (sugars e5 d10 e5, PS)”, the target mRNA inhibition (HepG2, 5 µM) is reported as 39% and 25%.

Sequence “GTCACACAATTACACTT (sugars e2 k2 d8 k2 e3, PS)” has a target mRNA inhibition (HepG2, 5 µM) of 28%.

Sequence “CAATTACACCACAAGCC (sugars e2 k2 d9 k2 e2, PS)” has a target mRNA inhibition (HepG2, 4 µM) of 61%.
